Values quoted from earlier work as cited in patent US20230372307A1, “COMBINATION THERAPY USING BAX ACTIVATOR AGENT” (Albert Einstein College of Medicine, priority 2020, published 2023).

Key:
Settings in all cases: cited from earlier work
BCL-w = biological target: T1, BCL-w (Homo sapiens, UniProt Q92843)
T1 sequence (Q92843 1-193): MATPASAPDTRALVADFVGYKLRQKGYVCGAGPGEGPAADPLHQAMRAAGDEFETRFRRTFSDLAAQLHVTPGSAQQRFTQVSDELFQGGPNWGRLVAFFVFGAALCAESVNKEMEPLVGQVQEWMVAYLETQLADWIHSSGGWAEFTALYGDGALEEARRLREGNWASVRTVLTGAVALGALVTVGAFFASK

BCL-XL = BCL-XL (Homo sapiens, UniProt Q07817)
BCL-XL, sequence (Q07817 whole entry): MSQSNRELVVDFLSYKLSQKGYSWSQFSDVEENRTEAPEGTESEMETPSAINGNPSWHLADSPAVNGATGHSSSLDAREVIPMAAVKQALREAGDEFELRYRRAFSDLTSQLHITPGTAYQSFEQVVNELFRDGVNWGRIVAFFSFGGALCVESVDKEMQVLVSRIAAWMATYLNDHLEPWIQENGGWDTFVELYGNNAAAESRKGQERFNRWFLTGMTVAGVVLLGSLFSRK

BCL-2 = BCL-2 (Homo sapiens, UniProt P10415)
BCL-2, sequence (P10415 whole entry): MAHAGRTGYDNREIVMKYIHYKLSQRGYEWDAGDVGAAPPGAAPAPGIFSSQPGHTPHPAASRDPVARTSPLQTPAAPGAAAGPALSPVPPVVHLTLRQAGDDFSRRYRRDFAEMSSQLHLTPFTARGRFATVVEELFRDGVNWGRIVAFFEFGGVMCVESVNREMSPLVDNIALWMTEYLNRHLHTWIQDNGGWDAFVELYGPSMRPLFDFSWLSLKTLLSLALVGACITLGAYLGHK

Measured: affinity

CN(C)CC[C@H](CSc1ccccc1)Nc1ccc(S(=O)(=O)NC(=O)c2ccc(N3CCN(Cc4ccccc4-c4ccc(Cl)cc4)CC3)cc2)cc1[N+](=O)[O-] [ABT-737]
< 1 mol/L: all assays above
